In patent publication US9724366B2, “CD11 B[low] macrophages and conditioned media thereof for treating cancer and/or fibrosis” (CARMEL-HAIFA UNIVRSITY ECONOMIC CORPORATION LTD., priority 2012, dated 2017):

Tests used:
macrophages = test: Cytokine secretion (ELISA) of macrophages from treated mice, unstimulated or activated with LPS; format: cell-based; conditions: unstimulated and LPS-stimulated macrophages
Protocol: Exudate macrophages were sorted or separated using PE selection magnetic beads (StemCell Technologies) and incubated (1×10^6 cells in 0.5 mL of culture media) with LPS (0-1000 ng/mL), poly (I:C) (4 μg/mL), or CpG-ODN (1 μM). After 16 h, the supernatants were collected and their TNF-α, IL-β, IL-10, TGFβ, CCL2, CCL3, and CCL5 contents were determined by standard ELISA.
To validate the improvement in immune-silencing of macrophages that followed treatment with RvD1, RvE1 and Dex, macrophages were activated with LPS, and cytokine secretion was determined. […] Thus, treatment with RvD1, RvE1, and Dex, promoted macrophage immune-silencing, as well as the secretion of pro-resolving cytokines from these cells.

[1] = system: peritonitis-affected mice; test: Murine zymosan A peritonitis, RvD1, RvE1 or Dex introduced into the peritoneum; format: in vivo; conditions: for appearance of CD11b^low macrophages in peritoneal exudates, increases over vehicle treatment: RvD1, RvE1 100 ng/mouse, Dex 25 mg/mouse into peritoneum 48 h after peritonitis initiation, exudates at 66 h; for neutrophil numbers: peritoneal exudates
Protocol: Male C57BL/6 mice (6-8 wk) were injected intraperitionealy (I.P) with zymosan A (1 mg). 66 hours post zymosan A injection, the mice were euthanized by CO2, their peritoneal cavity was lavaged with 5 ml of phosphate buffered saline (PBS) and the peritoneal exudates were collected by centrifugation for further analysis and experimentation.
Peritoneal exudates were collected and exudate cells were stained with FITC-conjugated rat anti-mouse Ly-6G, PE-conjugated rat anti-mouse F4/80, and PerCP-conjugated rat anti-mouse CD11b (Biolegend) and analyzed by FACSCalibur (Beckton-Dickinson). Macrophages were isolated using EasySep PE selection magnetic beads following the manufacturer's instructions (StemCell Technologies).
In some experiments, the macrophages were sorted to CD11b^high and CD11b^low populations of >95% purity, using FACSaria (Beckton-Dickinson), and the separate populations were used for microscopic analysis and for ex vivo stimulation. In some experiments, PKH2-PCL green (0.25 mM, 0.5 mL) was injected I.P at 48 h and peritoneal cells were recovered 4 h later, immunostained for F4/80 and CD11b as above and analyzed for fluorescence intensity of different macrophage populations. In relevant experiments, vehicle, RvD1, RvE1 (100 ng/mouse each), or Dex (25 mg/mouse) were introduced to the peritoneum 48 h after peritonitis initiation, and the exudates were recovered after 66 h and analyzed as before.
Exudate cells or sorted CD11b^high and CD11b^low macrophages were stained with Hoechst, and enumerated under a fluorescent microscope (Zeiss). Two areas of two cover slips, each containing at least 50 (overall 200) macrophages were analyzed, and the average number of PMN engulfed per macrophage as well as the number of macrophages with cutoff numbers of engulfed PMN, were calculated.
Similar properties were attributed to glucocorticoids, such as dexamethasone (Dex), that inhibit leukocyte infiltration to inflammation sites and promote the clearance of apoptotic PMN by macrophages. To determine whether pro-resolving mediators regulate emergence of CD11b^low macrophages and thereby promote resolution, RvD1, RvE1, or Dex were introduced into peritonitis-affected mice, and the recovered leukocytes were collected and analyzed for macrophage and neutrophil numbers, macrophage CD11b expression, engulfment of PMN, and responsiveness to LPS. The results are presented in FIG. 8 of Schif-Zuck et al., 2011, which is incorporated herein by reference. […] In addition, RvD1, RvE1 and Dex enhanced the appearance of CD11b^low macrophages (32.8±8.8%, 46.2±1.8%, and 39.9±4.6% increases over vehicle treatment, for RvD1, RvE1, and Dex, respectively) in peritoneal exudates. […] To determine whether RvD1, RvE1, and Dex regulate apoptotic PMN engulfment by macrophages during resolution, exudate cells were enumerated for PMN engulfment and analyzed as in FIG. 2.

[2] = system: macrophages recovered from peritoneal exudates; test: Ex vivo macrophage switch to the CD11b^low phenotype by pro-resolving lipid mediators (flow cytometry); format: cell-based, mice; conditions: mediators 50 nM, Dex 25 μg/ml
Protocol: FIG. 8 show promotion of macrophage switch to the CD11b^low phenotype by pro-resolving lipid mediators. Macrophages were recovered from peritoneal exudates 72 hrs post peritonitis initiation and incubated overnight with vehicle (RPMI 10% FBS+0.05% ethanol), RvD1, RvD2, PD1, LXB4, or 15-epi-LXA4, (all at 50 nM), apoptotic cells (M/N ratio of 1:5), or Dex (25 μg/ml). Then, the cells were stained for CD11b and analyzed by flow cytometry, and the percentage of CD11b^low (A) and CD11b^high (B) macrophages was determined. Results are mean±SE of two experiments (n=2). #P<0.005, $ P<0.01, * P<0.05 compared to vehicle.
Macrophages were recovered from peritoneal exudates 72 hrs post peritonitis initiation and incubated overnight with either RPMI 10% FBS+0.05% ethanol, the resolvins RvD1 or RvD2, […] PD1 or lipoxins LXB4, or 15-epi-LXA4, (all at 50 nM), apoptotic cells (M/N ratio of 1:5), or Dex (25 μg/ml). After 20 hours, the cells were stained for CD11b and analyzed by flow cytometry.

MEFs = test: Apoptosis detection in MEFs by TUNEL; format: cell-based, mouse; conditions: 1.5 μg/ml, 4 hours, positive control
Protocol: MEF cell line were cultured as described above in 8 well chamber glass slides, fixed with 4% PFA containing 5% sucrose and incubated for 1 hour with a mixture of TUNEL reaction mix according to the manufacturer's protocol (In Situ Cell death Detection Kit; TMR Red) covered with aluminum foil and placed in the 37° C., 5% CO2 incubator for 1 hour. Next, the slides were washed three times with PBS for 15 minutes each, and mounted with VECTASHIELD mounting medium with DAPI. The slides were imaged using a Nikon A1-R confocal laser scanning microscope (University of Haifa, Haifa, Israel).
3 images were captured from each well. Each captured frame was analyzed using NIS-Elements AR software to measure in the defined area the number of cells with positive DAPI staining, co-staining for DAPI and TUNEL (selected cells were larger than 8 μm), or Col-I expression by measuring sum intensity of area stained for Col-I per captured field.
Next we explored whether the inhibition of MEF proliferation by the CM-Mres was due to cell cycle arrest or increase in apoptosis of MEF. Therefore, we tested apoptosis of the MEFs at 48 hours. Therefore, MEFs were either untreated or were induced to differentiate on 8 chamber glass slides and were pre-incubated with CM-Mres 1 hour prior to adding TGFβ1. […] The cells were fixed and evaluated for apoptotic death by TUNEL staining. […]

For `CC[C@@H](O)/C=C/C=C\C[C@@H](O)/C=C/C=C/C=C\[C@@H](O)CCCC(=O)O` [RvE1, 5S,12R,18R-trihydroxy-4Z,8E,10E,14Z,16E-eico sapentaenoic acid], the “secretion of TNFα” value (macrophages) was “inhibited”, the “appearance of CD11b^low macrophages in peritoneal exudates, increases over vehicle treatment” value (“appearance … increases over vehicle treatment” for short) [1] was 46.2±1.8% and the “CD11b expression on CD11b^high macrophages” value ([1]; mouse, in vivo) was “reduced”. For the same molecule, the “appearance in the peritoneum of low-engulfing macrophages (less than 2 N/M)” value ([1]; mouse, in vivo) was “induced” and the neutrophil numbers [1] was “induced a reduction”.
With `CC/C=C\C[C@H](O)\C=C/C=C/C=C/[C@H](O)C/C=C\C/C=C\CCC(=O)O` [PD1] the “macrophage switch to the CD11b^low phenotype” value (“macrophage switch” below) [2] was “promotes macrophage switch”.
For `CCCCC[C@H](O)[C@H](O)/C=C/C=C/C=C\C=C\[C@@H](O)CCCC(=O)O` [LXB4], the “macrophage switch” value [2] was “promotes macrophage switch”.
In the case of `CCCCC[C@@H](O)/C=C/C=C\C=C\C=C\[C@@H](O)[C@@H](O)CCCC(=O)O` [15-epi-LXA4], the “macrophage switch” value [2] is reported as “promotes macrophage switch”.
With `CN[C@@H]1C[C@H]2O[C@@](C)([C@@H]1OC)n1c3ccccc3c3c4c(c5c6ccccc6n2c5c31)C(=O)NC4` [staurosporine] the “percentage of apoptotic cells (TUNEL)” value (MEFs) was “no significant changes”.
For `C[C@@H]1C[C@H]2[C@@H]3CCC4=CC(=O)C=C[C@]4(C)[C@@]3(F)[C@@H](O)C[C@]2(C)[C@@]1(O)C(=O)CO` [Dex, dexamethasone], the “appearance … increases over vehicle treatment” value [1] was 39.9±4.6%.
In the case of `CC/C=C\C[C@H](O)/C=C/C=C\C=C\C=C\[C@@H](O)[C@@H](O)C/C=C\CCC(=O)O` [RvD1, 7S,8R,17S-trihydroxy-4Z,9E,11E,13Z,15E,19Z-docosahexaenoic acid], the “macrophage switch” value [2] is reported as “promotes macrophage switch”, the “secretion of TNFα” value (macrophages) is reported as “inhibited” and the “appearance … increases over vehicle treatment” value [1] is reported as 32.8±8.8%. For the same molecule, the “CD11b expression on CD11b^high macrophages” value ([1]; mouse, in vivo) was “reduced”, the “number of macrophages in peritoneal cavities” value ([1]; mouse, in vivo) was “reduced” and the “numbers of apoptotic PMN engulfed by macrophages present in the peritoneum” value ([1]; mouse, in vivo) was “reduced”. For the same molecule, the neutrophil numbers [1] was “induced a reduction”.
`CC/C=C\C[C@H](O)[C@H](O)/C=C/C=C/C=C\C=C\[C@@H](O)C/C=C\CCC(=O)O` [RvD2] was tested, and the “macrophage switch” value [2] was “promotes macrophage switch”.
